Measured values taken from ChEMBL document CHEMBL1201862, “PubChem BioAssay data set” (2004).
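Briefly, cells in 96-well plates were exposed to five compound concentrations for 48 h, and endpoints were estimated by linear interpolation. GI50 is the concentration that inhibits growth by half.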 Calls of active or inactive are those of the source. Cut-off read from the data, not from the text of the source: active = GI50 up to about 1.1 µM and inactive = higher. Square brackets hold non-standard residues; d marks the D form. Peptide text beside a SMILES is read from it. pGlu = O=C1CC[CH](C(=O)O)N1

Legend:
Assay in all cases: NCI anticancer screen, dose series, 48 h
[1] = tested on: A498
[2] = tested on: RPMI-8226
[3] = tested on: 786-0
[4] = tested on: M14
[5] = tested on: SW-620
[6] = tested on: NCI-H226
[7] = tested on: ACHN
[8] = tested on: NCI-H522
[9] = tested on: IGROV-1
[10] = tested on: KM12
[11] = tested on: UACC-62
[12] = tested on: SNB-19
[13] = tested on: T47D
[14] = tested on: U-251
[15] = tested on: MCF7
[16] = tested on: OVCAR-3
[17] = tested on: Malme-3M
[18] = tested on: K562
[19] = tested on: OVCAR-4
[20] = tested on: DU-145

Measured: GI50

CC1=Nc2nc3ccccc3n2C(C)(C)C1
inactive: [1] > 100 µM | [2] > 100 µM | [3] > 100 µM | [4] > 100 µM | [5] > 100 µM | [6] > 100 µM | [7] > 100 µM | [8] > 100 µM | [9] > 100 µM | [10] > 100 µM | [11] > 100 µM | [12] > 100 µM | [13] > 100 µM | [14] > 100 µM | [15] > 100 µM | [16] > 100 µM | [17] 4.54 µM | [18] > 100 µM | [19] > 100 µM

O=C(O)CCNc1ncc2c(n1)-c1ccccc1OC2
inactive: [2] > 100 µM | [3] > 100 µM | [4] > 100 µM | [5] > 100 µM | [6] > 100 µM | [7] > 100 µM | [8] > 100 µM | [9] 36.2 µM | [10] > 100 µM | [11] > 100 µM | [12] > 100 µM | [14] > 100 µM | [15] > 100 µM | [16] > 100 µM | [20] > 100 µM | [17] > 100 µM | [18] > 100 µM | [19] > 100 µM

COC(=O)[C@@H](NC(=O)N(Cc1ccccc1)C[C@H](CC(C)C)NC(=O)[C@@H](NC(=O)OC(C)(C)C)C(C)C)C(C)C
inactive: [1] > 100 µM | [2] > 100 µM | [3] > 100 µM | [4] > 100 µM | [5] > 100 µM | [6] > 100 µM | [7] > 100 µM | [8] > 100 µM | [10] > 100 µM | [11] > 100 µM | [12] > 100 µM | [13] > 100 µM | [14] > 100 µM | [16] > 100 µM | [20] > 100 µM | [17] > 100 µM | [18] > 100 µM | [19] > 100 µM

CC(NC(=O)C(Cc1c[nH]cn1)NC(=O)C1CCC(=O)N1)C(N)=O (stereo not drawn) ([pGlu]-His-Ala-NH2; configuration not given here)
inactive: [2] > 100 µM | [3] > 100 µM | [4] > 100 µM | [5] > 100 µM | [6] > 100 µM | [7] > 100 µM | [9] > 100 µM | [10] > 100 µM | [11] > 100 µM | [12] > 100 µM | [13] > 100 µM | [14] > 100 µM | [15] > 100 µM | [16] > 100 µM | [20] > 100 µM | [17] > 100 µM | [18] > 100 µM

Cc1[nH]n(C(=N)N)c(=O)c1CCO
inactive: [1] > 100 µM | [3] 1.67 µM | [4] > 100 µM | [5] > 100 µM | [6] > 100 µM | [7] > 100 µM | [8] > 100 µM | [9] > 100 µM | [11] > 100 µM | [12] > 100 µM | [14] > 100 µM | [15] > 100 µM | [16] > 100 µM | [20] > 100 µM | [17] > 100 µM | [18] > 100 µM | [19] > 100 µM

CC(=O)/N=C1\NC(=O)/C(=C/c2ccc(Cl)cc2Cl)N1C
inactive: [3] 56.4 µM | [4] 95.3 µM | [5] 80.9 µM | [6] 6.81 µM | [7] > 100 µM | [8] > 100 µM | [9] 32.6 µM | [10] > 100 µM | [11] 9.04 µM | [12] 47.6 µM | [14] 19.5 µM | [15] > 100 µM | [16] 96.4 µM | [20] 60.4 µM | [19] 55.1 µM

CCc1nc2cc(F)ccc2[nH]c1=O
inactive: [1] 22.4 µM | [2] > 100 µM | [3] > 100 µM | [4] > 100 µM | [5] > 100 µM | [6] > 100 µM | [7] > 100 µM | [10] > 100 µM | [11] 38.7 µM | [12] > 100 µM | [14] > 100 µM | [15] > 100 µM | [16] > 100 µM | [20] 65.5 µM | [17] > 100 µM | [18] > 100 µM | [19] > 100 µM

Cc1ccc([N+](=O)[O-])cc1S(=O)(=O)Nc1ccc(C2=NN(c3ccc([N+](=O)[O-])cc3[N+](=O)[O-])C(c3cccs3)C2)cc1 (stereo not given)
inactive: [2] 10.9 µM | [3] 17.1 µM | [4] 15 µM | [5] 35.7 µM | [6] 22.2 µM | [7] 22.4 µM | [8] 10.5 µM | [9] 16.2 µM | [10] 21 µM | [12] 27.9 µM | [13] 16.9 µM | [14] 19.5 µM | [15] 17.3 µM | [16] 16.1 µM | [20] 25.8 µM | [17] 25.9 µM | [18] 17.2 µM | [19] 18.5 µM

COc1cccc(C2SCC(=O)N2c2ccc(-n3c(-c4ccccc4)nc4ccccc4c3=O)cc2)c1OC (stereo not given)
inactive: [1] > 100 µM | [2] > 100 µM | [3] > 100 µM | [4] > 100 µM | [5] > 100 µM | [6] > 87.9 µM | [7] > 100 µM | [8] > 100 µM | [9] > 100 µM | [10] > 100 µM | [11] > 38.5 µM | [12] > 100 µM | [13] 31.6 µM | [14] > 100 µM | [16] > 88.7 µM | [20] > 100 µM | [17] > 100 µM | [18] > 100 µM | [19] > 100 µM

O=C1CSC(c2c[nH]c3ccccc23)N1c1cccc([N+](=O)[O-])c1 (stereo not given)
inactive: [2] > 100 µM | [3] > 100 µM | [4] > 100 µM | [5] > 100 µM | [8] 95.3 µM | [9] > 100 µM | [10] 24.4 µM | [11] 80.5 µM | [12] > 100 µM | [13] > 100 µM | [14] > 100 µM | [15] 90.8 µM | [16] > 100 µM | [20] 51.9 µM | [18] 76.2 µM | [19] > 100 µM

COC(=O)C(NC(=O)CNC(=O)CSc1nnc(COc2ccc(Cl)cc2)n1-c1ccccc1)C(C)C (stereo not given)
inactive: [1] 21.6 µM | [2] 20.4 µM | [3] 18.4 µM | [4] 18.7 µM | [5] 20.2 µM | [6] 19.1 µM | [7] 18 µM | [8] 3.75 µM | [9] 18.8 µM | [10] 18.5 µM | [11] 16.6 µM | [12] 20.3 µM | [14] 18.3 µM | [15] 16.1 µM | [16] 17.3 µM | [20] 18.8 µM | [17] 18.4 µM | [18] 33.3 µM | [19] 22.1 µM

Cc1cc(S(=O)(=O)Nc2nc(N)n[nH]2)c(Cl)cc1Cl
inactive: [1] > 10 µM | [2] > 10 µM | [3] > 10 µM | [4] > 10 µM | [5] > 10 µM | [6] > 10 µM | [7] > 10 µM | [8] > 10 µM | [9] > 10 µM | [10] > 10 µM | [11] > 10 µM | [12] > 10 µM | [13] > 10 µM | [14] > 10 µM | [16] > 10 µM | [20] > 10 µM | [17] > 10 µM | [18] > 10 µM | [19] > 10 µM

C/C(CN1C(=O)c2ccccc2C1=O)=N\NS(=O)(=O)c1ccc(F)cc1
inactive: [1] > 100 µM | [2] > 100 µM | [3] > 100 µM | [4] > 100 µM | [5] > 100 µM | [6] > 100 µM | [7] > 100 µM | [8] > 100 µM | [9] > 100 µM | [10] > 100 µM | [11] > 100 µM | [12] > 100 µM | [14] > 100 µM | [16] > 100 µM | [17] > 100 µM | [18] > 100 µM | [19] > 100 µM

O=C(Nc1cc(C(F)(F)F)ccc1Cl)C(=O)C(C(=O)c1ccc2ccccc2c1)C1OC(=O)c2ccccc21 (stereo not given)
active: [6] 0.881 µM
inactive: [1] 6.55 µM | [2] 4.25 µM | [3] 5.26 µM | [4] 12.2 µM | [5] 6.35 µM | [7] 17 µM | [8] 4.29 µM | [9] 23.3 µM | [10] 13.3 µM | [11] 7.26 µM | [12] 6.21 µM | [14] 2 µM | [16] 13.9 µM | [17] 11.6 µM | [18] 4.66 µM | [19] 18 µM

CCN(CC)c1ccc2cc(C(N)=O)/c(=N/c3ccc(F)cc3)oc2c1
inactive: [1] 39.4 µM | [2] > 100 µM | [3] 14.8 µM | [4] > 100 µM | [5] > 100 µM | [6] 36.4 µM | [7] 40.8 µM | [8] 11.6 µM | [9] 26.7 µM | [10] 17.6 µM | [11] 26.4 µM | [12] 25.5 µM | [13] 14.2 µM | [14] 38.5 µM | [15] 51.4 µM | [16] > 100 µM | [17] 98.2 µM | [18] > 100 µM | [19] 41.3 µM
